Data on 14 compounds can be found in ChEMBL document CHEMBL1147732, “Novel tacrine-melatonin hybrids as dual-acting drugs for Alzheimer disease, with improved acetylcholinesterase inhibitory and antioxidant properties” (J Med Chem, 2006).

Where only a bound is given, the exact number is not on record here.

Data set [1] addresses T1, Acetylcholinesterase (Bos taurus, UniProt P23795).
T1 sequence (P23795 whole entry): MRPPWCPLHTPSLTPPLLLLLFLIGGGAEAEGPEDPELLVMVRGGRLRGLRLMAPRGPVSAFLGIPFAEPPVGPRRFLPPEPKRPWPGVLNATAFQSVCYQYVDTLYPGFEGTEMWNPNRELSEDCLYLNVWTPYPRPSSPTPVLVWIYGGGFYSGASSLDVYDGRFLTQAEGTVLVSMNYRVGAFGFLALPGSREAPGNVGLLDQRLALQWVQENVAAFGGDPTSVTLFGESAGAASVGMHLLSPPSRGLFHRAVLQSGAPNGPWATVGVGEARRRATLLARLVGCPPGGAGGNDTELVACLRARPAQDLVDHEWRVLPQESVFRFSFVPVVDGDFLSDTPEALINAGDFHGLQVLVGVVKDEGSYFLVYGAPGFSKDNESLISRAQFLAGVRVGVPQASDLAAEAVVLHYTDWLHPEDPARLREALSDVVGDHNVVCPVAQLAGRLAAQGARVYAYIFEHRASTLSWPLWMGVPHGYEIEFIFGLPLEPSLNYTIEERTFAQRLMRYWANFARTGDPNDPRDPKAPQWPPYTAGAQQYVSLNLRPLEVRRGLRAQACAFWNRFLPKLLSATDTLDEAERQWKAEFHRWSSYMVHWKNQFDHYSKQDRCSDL
Description: Inhibition of AchE from bovine erythrocytes

The next data set can be described thus: in vitro. To be noted: pig, PAMPA.
Another data set concerns the target Butyrylcholinesterase (Equus caballus, UniProt Q9N1N9).
Another data set addresses Cholinesterase (Homo sapiens, UniProt P06276).
Data set [2] concerns the target Acetylcholinesterase (Homo sapiens, UniProt P22303).

Acetylcholinesterase (Homo sapiens, UniProt P22303), sequence (P22303 whole entry): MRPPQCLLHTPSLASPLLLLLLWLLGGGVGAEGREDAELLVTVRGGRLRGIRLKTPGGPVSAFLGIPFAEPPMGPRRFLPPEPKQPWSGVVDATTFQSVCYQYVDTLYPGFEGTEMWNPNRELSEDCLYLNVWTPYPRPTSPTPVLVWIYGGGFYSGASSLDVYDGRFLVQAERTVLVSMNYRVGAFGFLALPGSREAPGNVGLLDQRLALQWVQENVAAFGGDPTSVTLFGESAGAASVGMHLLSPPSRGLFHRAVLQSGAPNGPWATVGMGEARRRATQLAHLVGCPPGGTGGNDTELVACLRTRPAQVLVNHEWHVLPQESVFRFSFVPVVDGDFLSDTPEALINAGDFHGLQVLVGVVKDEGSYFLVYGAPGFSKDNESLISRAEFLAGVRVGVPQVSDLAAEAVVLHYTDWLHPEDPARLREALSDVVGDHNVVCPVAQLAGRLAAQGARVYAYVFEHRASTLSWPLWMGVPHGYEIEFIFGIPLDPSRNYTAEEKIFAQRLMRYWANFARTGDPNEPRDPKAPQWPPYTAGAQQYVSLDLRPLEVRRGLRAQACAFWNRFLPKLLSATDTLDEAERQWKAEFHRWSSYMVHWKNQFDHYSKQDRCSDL
Butyrylcholinesterase, sequence (Q9N1N9 whole entry): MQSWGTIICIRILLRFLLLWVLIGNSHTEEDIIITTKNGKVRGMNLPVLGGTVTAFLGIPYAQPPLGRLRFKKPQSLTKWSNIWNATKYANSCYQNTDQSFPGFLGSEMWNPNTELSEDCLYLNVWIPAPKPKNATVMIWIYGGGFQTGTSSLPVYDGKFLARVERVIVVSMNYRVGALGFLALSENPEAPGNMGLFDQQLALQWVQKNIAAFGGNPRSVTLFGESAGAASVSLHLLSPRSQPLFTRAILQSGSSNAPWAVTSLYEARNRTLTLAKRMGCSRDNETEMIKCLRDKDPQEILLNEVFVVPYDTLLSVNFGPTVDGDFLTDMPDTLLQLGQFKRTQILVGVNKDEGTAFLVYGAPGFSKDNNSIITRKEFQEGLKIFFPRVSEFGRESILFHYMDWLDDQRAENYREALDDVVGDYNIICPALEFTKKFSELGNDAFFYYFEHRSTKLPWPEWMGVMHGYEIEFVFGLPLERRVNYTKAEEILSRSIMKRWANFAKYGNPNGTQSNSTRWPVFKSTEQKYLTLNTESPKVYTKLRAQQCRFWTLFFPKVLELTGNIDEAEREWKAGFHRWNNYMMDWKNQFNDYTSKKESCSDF
Cholinesterase, sequence (P06276 whole entry): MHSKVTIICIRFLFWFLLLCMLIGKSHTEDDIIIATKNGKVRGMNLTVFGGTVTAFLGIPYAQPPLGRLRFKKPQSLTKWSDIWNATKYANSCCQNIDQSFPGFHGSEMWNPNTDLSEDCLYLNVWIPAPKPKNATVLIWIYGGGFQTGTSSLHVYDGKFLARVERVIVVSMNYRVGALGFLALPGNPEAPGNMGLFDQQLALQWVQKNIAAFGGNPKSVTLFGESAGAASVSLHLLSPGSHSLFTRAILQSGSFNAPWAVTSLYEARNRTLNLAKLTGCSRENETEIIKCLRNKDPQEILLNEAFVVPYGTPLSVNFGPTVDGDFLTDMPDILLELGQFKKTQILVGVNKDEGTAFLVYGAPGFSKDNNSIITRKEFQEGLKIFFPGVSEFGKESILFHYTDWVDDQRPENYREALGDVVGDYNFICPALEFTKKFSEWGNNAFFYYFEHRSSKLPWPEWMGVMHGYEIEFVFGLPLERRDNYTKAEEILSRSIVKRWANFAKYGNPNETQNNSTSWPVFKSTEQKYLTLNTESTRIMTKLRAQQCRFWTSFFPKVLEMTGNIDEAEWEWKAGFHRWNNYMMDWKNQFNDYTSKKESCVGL
Description for Butyrylcholinesterase: Inhibition of BuChE from horse serum
Description for in vitro: Permeability in BBB by PAMPA using a lipid extract of porcine brain

What is called IC50 is the concentration that inhibits the measured activity by half. As usually defined, the Papp is a coefficient for how fast a substance crosses the barrier. The low end stands for poor permeation, the high end for ready permeation. For the compound `COc1ccc2[nH]cc(CCNC(=O)CCCCCNc3c4c(nc5ccccc35)CCCC4)c2c1`, the IC50 against Acetylcholinesterase [1] was found to be 9 nM; against Butyrylcholinesterase, 2 nM. The compound also returned a Papp in “in vitro” of 7.7 ×10⁻⁶ cm/s.

In the case of `O=C(CCCCCNc1c2c(nc3cc(Cl)cc(Cl)c13)CCCC2)NCCc1c[nH]c2ccccc12`, the results for the IC50 against Acetylcholinesterase [1] and on Butyrylcholinesterase were 3.5 nM and 8.2 nM, respectively. This compound registered a Papp in “in vitro” of 8.4 ×10⁻⁶ cm/s.

On to `O=C(CCCCCCNc1c2c(nc3cc(Cl)cc(Cl)c13)CCCC2)NCCc1c[nH]c2ccccc12`, for which the IC50 came to 7.8 nM against Cholinesterase, 2 nM against Acetylcholinesterase [1], 0.008 nM against Acetylcholinesterase [2] and 85 nM against Butyrylcholinesterase.

For `O=C(CCCCCCNc1c2c(nc3ccccc13)CCCC2)NCCc1c[nH]c2ccccc12`, the IC50 was 6.8 nM on Cholinesterase, 1 nM on Acetylcholinesterase [1], 0.5 nM against Acetylcholinesterase [2] and 0.95 nM at Butyrylcholinesterase. This compound also displayed a Papp in the data set “in vitro” of 9.2 ×10⁻⁶ cm/s.

Take `COc1ccc2[nH]cc(CCNC(=O)CCCCCNc3c4c(nc5cc(Cl)ccc35)CCCC4)c2c1`: the IC50 was determined as 12 nM against Acetylcholinesterase [1] and 55 nM on Butyrylcholinesterase.

With `O=C(CCCCCNc1c2c(nc3ccccc13)CCCC2)NCCc1c[nH]c2ccccc12`, the IC50 against Acetylcholinesterase [1] is 4 nM; against Butyrylcholinesterase, 12 nM. Further, the Papp in the data set “in vitro” worked out at 11 ×10⁻⁶ cm/s.

For `COc1ccc2[nH]cc(CCNC(=O)CCCCCNc3c4c(nc5cccc(Cl)c35)CCCC4)c2c1`, the values for the half-inhibitory concentration (IC50) against Acetylcholinesterase [1] and against Butyrylcholinesterase were 25 nM and 22 nM, respectively. Further, the Papp in “in vitro” is 8.9 ×10⁻⁶ cm/s.

As to `O=C(CCCCCNc1c2c(nc3cccc(Cl)c13)CCCC2)NCCc1c[nH]c2ccccc12`, the IC50 on Cholinesterase amounted to 23 nM; on Acetylcholinesterase [1], 65 nM; at Acetylcholinesterase [2], 0.87 nM; against Butyrylcholinesterase, 15 nM. The compound further registered a Papp in the data set “in vitro” of 5.2 ×10⁻⁶ cm/s.

With `O=C(CCCCCNc1c2c(nc3ccccc13)CCCC2)NCCc1c[nH]c2ccc(O)cc12`, the concentration for half-maximal inhibition (IC50) against Cholinesterase worked out at 1 nM; against Acetylcholinesterase [1] it was 35 nM; against Acetylcholinesterase [2], 0.45 nM; against Butyrylcholinesterase it was 3.5 nM. In the data set “in vitro”, the Papp amounted to 2 ×10⁻⁶ cm/s.

With `COc1ccc2[nH]cc(CCNC(=O)CCCCCCNc3c4c(nc5cc(Cl)cc(Cl)c35)CCCC4)c2c1`, the IC50 on Cholinesterase turned out to be 25 nM; at Acetylcholinesterase [1], 5 nM; on Acetylcholinesterase [2] it was 0.04 nM; against Butyrylcholinesterase it was 100 nM.

For `O=C(CCCCCCNc1c2c(nc3cc(Cl)ccc13)CCCC2)NCCc1c[nH]c2ccccc12`, the half-maximal inhibitory concentration (IC50) was determined as 35 nM against Cholinesterase, 0.2 nM at Acetylcholinesterase [1], 0.1 nM against Acetylcholinesterase [2] and 8.1 nM against Butyrylcholinesterase.

On to `COc1ccc2[nH]cc(CCNC(=O)CCCCCCNc3c4c(nc5ccccc35)CCCC4)c2c1`, for which the IC50 amounted to 3 nM at Cholinesterase, 2.3 nM against Acetylcholinesterase [1], 0.65 nM at Acetylcholinesterase [2] and 2.5 nM on Butyrylcholinesterase. The compound also returned a Papp in the data set “in vitro” of 8.6 ×10⁻⁶ cm/s.

In the case of `O=C(CCCCCNc1c2c(nc3cc(Cl)ccc13)CCCC2)NCCc1c[nH]c2ccccc12`, the IC50 worked out at 2 nM against Acetylcholinesterase [1] and 5.2 nM on Butyrylcholinesterase. The compound also displayed a Papp in the data set “in vitro” of 7.7 ×10⁻⁶ cm/s.

As for `COc1ccc2[nH]cc(CCNC(C)=O)c2c1` [MELATONIN], the IC50 at Acetylcholinesterase [1] and on Butyrylcholinesterase was above 100 nM in each case.
